Columns and labels:
[1] = biological target: T1, Gastrin/cholecystokinin type B receptor (Mus musculus, UniProt P56481); assay: Compound measured for half-maximal inhibition of specific binding of [125I]bolton Hunter CCK-26-33 to CCK-B receptor in the mouse cerebral cortex.; assay type: tissue-based
T1 sequence (P56481 whole entry): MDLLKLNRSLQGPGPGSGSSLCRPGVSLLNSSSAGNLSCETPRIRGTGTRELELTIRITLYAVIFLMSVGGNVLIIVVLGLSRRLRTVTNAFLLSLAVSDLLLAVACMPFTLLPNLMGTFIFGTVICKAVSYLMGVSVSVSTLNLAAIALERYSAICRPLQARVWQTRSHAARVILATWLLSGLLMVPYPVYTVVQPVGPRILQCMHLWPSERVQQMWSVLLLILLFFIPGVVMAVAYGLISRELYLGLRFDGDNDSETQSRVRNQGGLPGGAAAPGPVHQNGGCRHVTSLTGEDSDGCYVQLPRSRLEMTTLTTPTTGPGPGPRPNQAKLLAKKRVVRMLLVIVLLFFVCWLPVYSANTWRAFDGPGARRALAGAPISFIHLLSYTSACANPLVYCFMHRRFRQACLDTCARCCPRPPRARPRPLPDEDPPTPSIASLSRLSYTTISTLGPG

[2] = biological target: T2, Cholecystokinin receptor type A (Rattus norvegicus, UniProt P30551)
T2 sequence (P30551 whole entry): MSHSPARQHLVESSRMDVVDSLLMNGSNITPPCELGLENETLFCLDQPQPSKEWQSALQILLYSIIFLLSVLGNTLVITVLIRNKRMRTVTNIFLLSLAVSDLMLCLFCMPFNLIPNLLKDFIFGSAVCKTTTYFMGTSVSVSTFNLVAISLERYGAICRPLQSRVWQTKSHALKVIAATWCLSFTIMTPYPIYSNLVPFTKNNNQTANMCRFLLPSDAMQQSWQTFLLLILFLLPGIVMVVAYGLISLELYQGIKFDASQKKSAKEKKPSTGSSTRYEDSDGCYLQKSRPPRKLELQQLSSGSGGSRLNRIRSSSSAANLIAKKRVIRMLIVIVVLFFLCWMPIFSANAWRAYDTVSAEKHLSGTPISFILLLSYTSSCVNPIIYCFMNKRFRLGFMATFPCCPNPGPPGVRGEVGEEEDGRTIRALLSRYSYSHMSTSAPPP
Description: Compound measured for half-maximal inhibition of specific binding of [125I]-Bolton Hunter CCK-26-33 to CCK-A receptor in the rat pancreas.

O=C(O)C[C@H](Cc1ccccc1)NC(=O)C(=Cc1c[nH]c2ccccc12)NC(=O)OC1C2CC3CC(C2)CC1C3 (some centres undefined)
IC50 [1]: 0.3 nM
IC50 [2]: 18 nM

O=C(O)C[C@@H](Cc1ccccc1)NC(=O)/C(=C/c1c[nH]c2ccccc12)NC(=O)OC1C2CC3CC(C2)CC1C3 (some centres undefined)
IC50 [1]: 99 nM
IC50 [2]: 3.7 nM

O=C(O)C[C@H](Cc1ccccc1)NC(=O)/C(=C/c1c[nH]c2ccccc12)NC(=O)OC1C2CC3CC(C2)CC1C3 (some centres undefined)
IC50 [1]: 13 nM
IC50 [2]: 550 nM

C[C@](Cc1c[nH]c2ccccc12)(NC(=O)OC1C2CC3CC(C2)CC1C3)C(=O)N[C@H](CC(=O)O)Cc1ccccc1 (some centres undefined)
IC50 [2]: 30 nM

O=C(O)C[C@@H](Cc1ccccc1)NC(=O)C(=Cc1c[nH]c2ccccc12)NC(=O)OC1C2CC3CC(C2)CC1C3 (some centres undefined)
IC50 [1]: 60 nM
IC50 [2]: 3.9 nM

Reference: ChEMBL document CHEMBL1126515 (Bioorg Med Chem Lett, 1993)
